Like-named read-outs stand apart in the source and are kept apart here.
Tests used:
[1] = test system: HSV-1 F; assay: anti-HSV screening test (cytopathogenic effect, fluorescein diacetate readout) in Vero cells, HSV-1 F; format: cell-based; settings: read-out: IC50 [μM] HSV-1 F/Vero
Protocol: (§1) HSV (HSV-1 Walki, HSV-1F or HSV-2G) was cultivated on Vero cells (ATCC CCL-81) under the following conditions. The cells were grown in M199 medium (5% foetal calf serum, 2 mM glutamine, 100 IU/ml penicillin, 100 μg/ml streptomycin) in cell culture bottles at 37° C. and 5% CO2. The cells were split twice per week, in each case 1:4. For the infection, the medium was removed, the cells were washed with Hank's solution, detached using 0.05% trypsin, 0.02% EDTA (Seromed L2143) and incubated at a density of 4×10^5 cells per ml under the abovementioned conditions for 24 hours. The medium was then removed and the virus solution was added at an m.o.i. of <0.05 in a volume of 2 ml per 175 cm^2 of surface. The medium was incubated under the conditions mentioned for one hour and then made up to a volume of 50 ml per 175 cm^2 bottle. […] The virus was released by freezing (−80° C.) and thawing (37° C.) the cultures twice. Cell debris was removed by centrifugation (300 g, 10 min, 4° C.) and the supernatant was frozen down in aliquots at −80° C.
(§2) The anti-HSV action was determined in a screening test system in 96-well microtitre plates using various cell lines of neuronal, lymphoid and epithelial origin, such as, for example, Vero (kidney cell line of the green monkey), MEF (murine embryonal fibroblasts), HELF (human embryonal fibroblasts), NT2 (human neuronal cell line) or Jurkat (human lymphoid T-cell line).
(§3) The substances (50 mM), dissolved in DMSO (dimethyl sulphoxide), are examined on microtitre plates (for example 96-well MTP) in final concentrations of 250-0.5 μM (micromolar) in two replications (4 substances/plate). In the case of potent substances, the dilutions are continued for several plates up to 0.5 pM (picomolar). Also examined are toxic and cytostatic effects of the substances. After an appropriate dilution of the substances (1:2) on the microtitre plate in medium, a suspension of cells ([…] cells per well) such as, for example, of Vero cells in M199 (medium 199) with 5% foetal calf serum, 2 mM glutamine and optionally 100 IU/ml penicillin and 100 μg/ml streptomycin or of MEF cells in EMEM (Eagle's Minimum Essential Medium) with 10% foetal calf serum, 2 mM glutamine and optionally 100 IU/ml penicillin and 100 μg/ml streptomycin, or of HELF cells in EMEM with 10% foetal calf serum, 2 mM glutamine and optionally 100 IU/ml penicillin and 100 μg/ml streptomycin, or of NT2 and Jurkat cells in DMEM ([…] glucose plus pyridoxin) with 10% foetal calf serum, 2 mM glutamine, 1 mM sodium pyruvate, non-essential amino acids and optionally 100 IU/ml penicillin and 100 μg/ml streptomycin, is added to each well and the cells in the relevant wells are infected with an appropriate amount of virus (HSV-1 F or HSV-2 G having an m.o.i. (multiplicity of infection) of 0.0025 for HELF, Vero and MEF cells and an m.o.i. of 0.1 for NT2 and Jurkat cells). The plates are then incubated at 37° C. in a CO2 incubator (5% CO2) for several days. […] The plates are initially evaluated visually using a microscope and then analysed using a fluorescent dye. To this end, the cell supernatant of all wells of the MTP is aspirated and the wells are filled with 200 μl of PBS wash solution. The PBS is then aspirated and all the wells are filled with 200 μl of fluorescent dye solution (fluorescein diacetate, 10 μg/ml in PBS). After an incubation time of 30-90 min, the test plates are read in a fluorescence detector at an excitation wavelength of 485 nm and an emission wavelength of 538 nm.

[2] = test system: HSV-1; assay: in-vivo action: survival of intranasally HSV-infected mice; design: species or system BALB/cABom strain; settings: HSV-1, intranasal infection 5×10^4 Pfu, female BALB/cABom mice; treated 3 times per day for 5 days from 6 hours after infection; from survival curves
Protocol: 6-week-old female mice, BALB/cABom strain were obtained from a commercial breeder (Bomholtgard Breeding and Research Centre Ltd.).
The animals were anaesthetized with diethyl ether (Merck) in a sealed glass vessel. 50 μl of a dilution of the virus stock (infection dose 5×10^4 Pfu) were introduced into the nose of the anaesthetized animals using an Eppendorf pipette. In 90-100% of the animals, this infection dose causes death by a generalized infection with prominent respiratory and central-nervous symptoms on average after 5 to 8 days.
6 hours after the infection, the animals were treated with doses of 0.1-100 mg/kg of body mass, 3 times per day, at 7 a.m., 2 p.m. and 7 p.m., for a period of 5 days. The substances were pre-dissolved in DMSO and resuspended in tylose/PBS (Hoechst) (final concentration 1.5% DMSO, 0.5% tylose in PBS).
After the last administration, the animals were monitored further and the time of death was determined.

[3] = test system: HSV-2 G; assay: anti-HSV screening test (cytopathogenic effect, fluorescein diacetate readout) in Vero cells, HSV-2 G; format: cell-based; settings: read-out: IC50 [μM] HSV-2 G/Vero
Protocol: as §1, §2, §3

[4] = Human alphaherpesvirus 1, HSV-1 F, Vero cells, half-maximal fluorescence intensity with respect to the non-infected cell control
[5] = Human alphaherpesvirus 2, HSV-2 G, Vero cells, half-maximal fluorescence intensity with respect to the non-infected cell control

IC50 [1, 4] [µM] | IC50 [3, 5] [µM] | SMILES | IC50 ([1]; Human alphaherpesvirus 1, Vero) [µM] | ED90 (90% of the animals survive at this dose) [2] | IC50 ([3]; Human alphaherpesvirus 2, Vero) [µM]
– | – | Cc1nc(C(C)C(=O)Nc2ccc(-c3cc(F)ccc3F)cc2)sc1S(N)(=O)=O (centres unmarked) [Example 3, 2-[5-(Aminosulphonyl)-4-methyl-1,3-thiazol-2-yl]-N-(2′,5′-difluoro-1,1′-biphenyl-4-yl)propanamide] | 0.05 | about 3 mg/kg | 0.01
0.2 | 0.4 | Cc1nc(C(C)C(=O)Nc2ccc(-c3ccccn3)cc2)sc1S(N)(=O)=O (centres unmarked) [Example 2, 2-[5-(Aminosulphonyl)-4-methyl-1,3-thiazol-2-yl]-N-[4-(2-pyridinyl)-phenyl]propanamide] | – | – | –
0.05 | 0.03 | Cc1nc(C(C)C(=O)Nc2ccc(-c3ccccc3)cc2)sc1S(N)(=O)=O (centres unmarked) [Example 1, 2-[5-(Aminosulphonyl)-4-methyl-1,3-thiazol-2-yl]-N-(1,1′-biphenyl-4-yl)-propanamide] | – | – | –
0.75 | 0.75 | CCOc1ccc(NC(=O)C(C)c2nc(C)c(S(N)(=O)=O)s2)cc1 (centres unmarked) [Example 4, 2-[5-(Aminosulphonyl)-4-methyl-1,3-thiazol-2-yl]-N-(4-ethoxyphenyl)-propanamide] | – | – | –
0.1 | 0.06 | CNS(=O)(=O)c1sc(C(C)C(=O)Nc2ccc(-c3ccccc3)cc2)nc1C (centres unmarked) [Example 5, N-(1,1′-Biphenyl-4-yl)-2-{4-methyl-5-[(methylamino)sulphonyl]-1,3-thiazol-2-yl}propanamide] | – | – | –
